Experimental data as given in patent US12486218B2, “Compounds advantageous in the treatment of central nervous system diseases and disorders” (AurimMed Pharma, Inc., priority 2008, dated 2025).
“And” between values parts separate entries of the source, which are not always exact repeats. Identical values can stand only once. Like-named read-outs stand apart in the source and are kept apart here.

Assays:
SMN2 promoter = SMN2 promoter β-lactamase reporter assay in NSC34 motor neuron-like cells; type: cell-based
Procedure: FIG. 30 illustrates a screen for SMN2 expression of a number of compounds described herein.
SMN2 promoter activity was measured using NSC34 motor neuron-like cells stably transfected with a β-lactamase (BLA) reporter gene under the control of a 3.4-kilobase fragment of the SMN2 promoter. D156844 was used as a positive control for this assay.

mice [1] = conditions: mouse, in vivo, ip
Procedure: (§1) The animal testing was performed according to methods known in the relevant art.

rats [2] = experiment: Pilocarpine-induced Status Epilepticus in Rats (prevention; intervention @ 30 min); conditions: for Prevention, Protection: rat, in vivo, 200 mg/kg
Procedure: The animal testing was performed using the protocols developed in the Anticonvulsant Screening Program (ASP) at the National Institute of Neurological Disorders and Stroke (NINDS), National Institutes of Health (NIH).

mice [3] = experiment: Maximal Electroshock Seizure (MES) test, mice i.p.; type: in vivo; conditions: for ED50: Mus musculus
mice [4] = experiment: 6 Hz (minimal clonic seizure) model, mice i.p.; type: in vivo; conditions: ip
mice [5] = experiment: Subcutaneous Metrazol Seizure threshold (s.c. MET) test, mice i.p.; type: in vivo; conditions: for ED50: Mus musculus
rats [6] = experiment: Minimal motor impairment (MID50), rats p.o.; type: in vivo
rats [7] = experiment: MES test, rats p.o.; type: in vivo; conditions: Rattus norvegicus, po
rats [8] = experiment: s.c. MET test, rats p.o.; type: in vivo; conditions: Rattus norvegicus, p.o.
rats [9] = experiment: Preliminary Hippocampal Kindling Screening in rats (i.p.); type: in vivo; conditions: at 65 mg/kg
rats [10] = experiment: Hippocampal Kindled Rats model; type: in vivo; conditions: Rattus norvegicus
C3A hepatocyte cells [11] = experiment: ACTIVTox LDH release assay; type: cell-based
Procedure: Compounds A, I, H, and F were tested by Stem Cell Innovations, Inc. (Houston, TX) in their ACTIVTox® Human Liver Cell-based assays (using C3A hepatocyte cells). Specifically, the compounds were tested in the LDH release assay, which determines the release of Lactate DeHydrogenase (an indicator of cell death) at various concentrations of test compound.
A concentration of 100 µM of test compound is a much higher level of exposure to liver cells than would ever be expected under physiological conditions. Therefore, using 100 μM as a standard test concentration (for comparative purposes), the ratio of the absorbance (which measures the level of LDH release) resulting from the presence of the test compound versus the negative control is a value known as the “average (or mean) fold control” (Average Fold Control=Average of Absorbance/Average of Negative Control).

C3A hepatocyte cells [12] = experiment: ACTIVTox Cell Proliferation Assay; type: cell-based; conditions: at a concentration of 100 μM
[13] = system: inclusion of exon 7 in SMN2 mRNAs; experiment: Exon 7 inclusion BLA reporter assay in NSC34 cell line; type: cell-based
Description: To measure changes in the inclusion of exon 7 in SMN2 mRNAs, another NSC34 cell line was used that stably transfected with a reporter construct which expresses BLA when exon 7 is included in the SMN2 minigene mRNAs. 5-(N-ethyl-N-isopropyl)-amiloride (EIPA) was used as a positive control for this assay. Data for tis assay is illustrated in FIG. 30.

in vivo = conditions: mouse, ip
Procedure: as §1

mice [14] = experiment: Minimal motor impairment (MID50), mice i.p.; conditions: mice, i.p.
Procedure: as §1

sodium channels = conditions: by way of comparison; cited from earlier work
rats [15] = conditions: male versus female kindled rats; cited from earlier work

SMILES: COc1ccc(C(C)CC(N)=O)cc1 (racemic) [BZ]
- Promoter (SMN2 promoter test, summary YES/NO) (SMN2 promoter): YES
- SMN2 promoter activity (SMN2 promoter): increased SMN2 promoter activity
- MID50, result in words (mice [1]): No
- Prevention, Protection (rats [2]): 100%

SMILES: Cc1ccc(C(CC(N)=O)C2CC2)cc1 (centres unmarked) [AL, 3-Cyclopropyl-3-ρ-tolyl-propionamide]
- activity in the MES test (mice [3]; mouse, in vivo, 100 mg/kg): activity
- 6 Hz (32 mA), fraction of animals (mice [4]; mouse, in vivo, 100 mg/kg): 4/4, 2/4, and 2/4 , 1/4 @
- SMN2 promoter activity (SMN2 promoter): increased SMN2 promoter activity
- MID50, result in words (mice [1]): No
- Prevention, Protection (rats [2]): 100%

SMILES: NC(=O)CC1(c2cccc(Cl)c2)CCCC1 [CX]
- MES, fraction of animals (mice [3]; mouse, in vivo, ip, 100 mg/kg): 4/4 @ and 3/4, 2/4 @
- s.c. MET, fraction of animals (mice [5]; mouse, in vivo, 100 mg/kg): 2/4 @ 0.25 hrs
- Promoter (SMN2 promoter test, summary YES/NO) (SMN2 promoter): YES
- SMN2 promoter activity (SMN2 promoter): increased SMN2 promoter activity
- MID50, fraction of animals (mice [1]; 100 mg/kg): 8/8 @ 0.25 hrs

SMILES: CC(C)(CC(N)=O)c1ccc(Cl)cc1 [Compound A, 3-(4-Chlorophenyl)-3-methylbutyramide]
- ED50 (mice [3]; ip, mice): 41.6 mg/kg
- ED50 (mice [3]; ip, mice i.p., @ 0.25 hr): 41.6 mg/kg
- ED50 (mice [5]; mice i.p., @ 0.25 hr): 39.3 mg/kg
- ED50 (mice [5]; mice, i.p.): 39.3 mg/kg
- ED50 (mice [4]; Mus musculus, mice, i.p., read-out: 6 Hz ED50): 47.6 mg/kg
- MID50 (rats [6]): 244.90 mg/kg
- ED50 (rats [7]): 28.8 mg/kg
- ED50 (rats [8]): 45 mg/kg
- seizure score, Preliminary Hippocampal Kindling Screening (rats [9]): zero
- ED50 (rats [10]): 26 mg/kg
- LDH release, mean fold control (C3A hepatocyte cells [11]; at 100 μM, C3A hepatocyte cells, value below 1.75 = no cyto- or hepatotoxic activity): 1.05
- cyto- or hepatotoxicity, ACTIVTox data (C3A hepatocyte cells [11]; at physiologically relevant concentrations (i.e., <100 µM)): not cyto- or hepatotoxic
- Cell Proliferation Assay, mean fold control (C3A hepatocyte cells [12]): 1.15
- toxicity to proliferating cells (C3A hepatocyte cells [12]): non-toxic
- SMN2 promoter activity (SMN2 promoter; treatment for 19 hours at a concentration of 1 μM): increased SMN2 promoter activity
- effect on the inclusion of exon 7 in SMN2 transcripts ([13]; NSC34 exon 7 BLA reporter cells): positive effect on the inclusion of exon 7
- Exon 7 inclusion (summary YES/NO) ([13]; Table 13 summary): YES
- TD50 (in vivo): 108 mg/kg
- MID50 (median minimal motor impairment dose) (mice [14]): 107.87 mg/kg
- responders at 120 mg/kg (rats [2]; Rattus norvegicus, 0.5 h, read-out: Intervention @ 30 min, Protection): 57%
- responders at 65 mg/kg (rats [2]; Rattus norvegicus, read-out: Prevention, Protection): 86%

SMILES: Nc1nnc(-c2cccc(Cl)c2Cl)c(N)n1 [lamotrigine]
- % of control inhibited, sodium currents, typical sodium-channel-blocking drugs (sodium channels): about 50%

SMILES: O=C1NC(=O)C(c2ccccc2)(c2ccccc2)N1 [phenytoin]
- % of control inhibited, sodium currents, typical sodium-channel-blocking drugs (sodium channels): about 50%
- efficacy in the two genders (comparison drug) (rats [15]): significantly less effective in male kindled rats than it is in female kindled rats
